Data on 23 molecules can be found in patent publication US10570129B2 (Zoetis Services LLC, priority 2015, dated 2020).

One assay concerns Haemonchus contortus L3. The assay is described as follows: microbe, parasite or virus in culture. The format is cell-based. The conditions noted are these: for minimal effective concentration: Haemonchus contortus, 96 h, read-out: HcL3 Minimal Effective Concentration (MEC).
In another assay the test system is D. immitis microfilariae. The assay is described as follows: Dirofilaria immitis, microfilariae (DiMF) in vitro motility assay. The format is cell-based. The conditions noted are these: for minimal effective concentration: Dirofilaria immitis, 72 h, read-out: DiMF minimally effective dose (MEC).

For `COc1ccc(/C=C/CN2CCc3c(c4cccc(Cl)c4n3C(=O)NCc3ccnc(Cl)c3)C2)cc1` [Example 270, (E)-6-chloro-N-((2-chloropyridin-4-yl)methyl)-2-(3-(4-methoxyphenyl)allyl)-1,2,3,4-tetrahydro-5H-pyrido[4,3-b]indole-5-carboxamide], the minimal effective concentration with Haemonchus contortus L3 is more than 100 µM; in the assay with D. immitis microfilariae, 10 µM.

In the case of `NC(=O)c1ccc2c3c(n(C(=O)NCc4ccnc(Cl)c4)c2c1)CCN(C/C=C/c1ccc(F)cc1)C3` [Example 466, (E)-N^5-((2-chloropyridin-4-yl)methyl)-2-(3-(4-fluorophenyl)allyl)-1,2,3,4-tetrahydro-5H-pyrido[4,3-b]indole-5,7-dicarboxamide], the values for the minimal effective concentration in the assay on Haemonchus contortus L3 and with D. immitis microfilariae were more than 100 µM and 3.3 µM, respectively.

Turning to `N#Cc1ccc(/C=C/CN2CCc3c(c4ccc(OC(F)(F)F)cc4n3C(=O)NCc3ccnc(F)c3)C2)cc1F` [Example 372, (E)-2-(3-(4-cyano-3-fluorophenyl)allyl)-N-((2-fluoropyridin-4-yl)methyl)-7-(trifluoromethoxy)-1,2,3,4-tetrahydro-5H-pyrido[4,3-b]indole-5-carboxamide], the minimal effective concentration came to 0.5 µM in the assay with Haemonchus contortus L3 and 5.7 µM in the assay on D. immitis microfilariae.

For the molecule `O=C(NCc1ccnc(Cl)c1)n1c2c(c3cc(Cl)c(Cl)cc31)CN(C/C=C/c1ccc(F)cc1F)CC2` [Example 276, (E)-7,8-dichloro-N-((2-chloropyridin-4-yl)methyl)-2-(3-(2,4-difluorophenyl)allyl)-1,2,3,4-tetrahydro-5H-pyrido[4,3-b]indole-5-carboxamide], the minimal effective concentration with Haemonchus contortus L3 was 0.3 µM; in the assay with D. immitis microfilariae, 18.2 µM.

On to `O=C(NCc1ccnc(F)c1)n1c2c(c3cc(-c4ccc(F)cc4)ccc31)CN(C/C=C/c1ccc(Cl)cc1)CC2` [Example 463, (E)-2-(3-(4-chlorophenyl)allyl)-8-(4-fluorophenyl)-N-((2-fluoropyridin-4-yl)methyl)-1,2,3,4-tetrahydro-5H-pyrido[4,3-b]indole-5-carboxamide], for which the minimal effective concentration in the assay on Haemonchus contortus L3 and in the assay with D. immitis microfilariae was more than 100 µM throughout.

In the case of `O=C(NCc1ccnc(F)c1)n1c2c(c3cc(Br)ccc31)CN(C/C=C/c1ccc(F)c(Cl)c1)CC2` [Example 190, (E)-8-bromo-2-(3-(3-chloro-4-fluorophenyl)allyl)-N-((2-fluoropyridin-4-yl)methyl)-1,2,3,4-tetrahydro-5H-pyrido[4,3-b]indole-5-carboxamide], the minimal effective concentration in the assay on Haemonchus contortus L3 stood at 1 µM; in the assay with D. immitis microfilariae it was 5.7 µM.

Turning to `CS(=O)(=O)c1ccc2c(c1)c1c(n2C(=O)NCc2ccnc(Cl)c2)CCN(C/C=C/c2ccc(Cl)c(F)c2)C1` [Example 455, (E)-2-(3-(4-chloro-3-fluorophenyl)allyl)-N-((2-chloropyridin-4-yl)methyl)-8-(methylsulfonyl)-1,2,3,4-tetrahydro-5H-pyrido[4,3-b]indole-5-carboxamide], the figures for the minimal effective concentration with Haemonchus contortus L3 and in the assay on D. immitis microfilariae were 0.7 µM and 5.7 µM, respectively.

For the molecule “(E)-7-chloro-2-(3-(4-cyano-3-fluorophenyl)allyl)-N-((2-fluoropyridin-4-yl)methyl)-1,2,3,4-tetrahydro-5H-pyrido[4,3-b]indole-5-carboxamide [Example 225]”, the “HcL3 Minimal Effective Concentration (MEC)” value with Haemonchus contortus L3 came out at 1.8 µM. The “DiMF minimally effective dose (MEC)” value in the assay on D. immitis microfilariae (decrease in microfilariae motility by subjective visual assessment, observed at 72 hours) is 3.3 µM.

With `O=C(NCc1ccnc(Cl)c1)n1c2c(c3cc4c(cc31)COC4)CN(C/C=C/c1ccc(C(F)(F)F)cn1)CC2` [Example 474, (E)-N-((2-chloropyridin-4-yl)methyl)-8-(3-(5-(trifluoromethyl)pyridin-2-yl)allyl)-1,3,6,7,8,9-hexahydro-5H-furo[3,4-f]pyrido[4,3-b]indole-5-carboxamide], the minimal effective concentration amounted to 0.2 µM with Haemonchus contortus L3 and 10 µM with D. immitis microfilariae.

On to `O=C(NCc1ccnc(Cl)c1)n1c2c(c3ccc(OC(F)(F)F)cc31)CN(Cc1ccc3cc(Br)ccc3c1)CC2` [Example 364, 2-((6-bromonaphthalen-2-yl)methyl)-N-((2-chloropyridin-4-yl)methyl)-7-(trifluoromethoxy)-1,2,3,4-tetrahydro-5H-pyrido[4,3-b]indole-5-carboxamide], for which the minimal effective concentration in the assay on Haemonchus contortus L3 was more than 100 µM; in the assay on D. immitis microfilariae, 1.8 µM.

Consider `O=C(NCc1ccnc(Cl)c1)n1c2c(c3c(C(F)(F)F)cccc31)CN(C/C=C/c1ccc(F)cc1)CC2` [Example 161, (E)-N-((2-chloropyridin-4-yl)methyl)-2-(3-(4-fluorophenyl)allyl)-9-(trifluoromethyl)-1,2,3,4-tetrahydro-5H-pyrido[4,3-b]indole-5-carboxamide], for which the minimal effective concentration with Haemonchus contortus L3 turned out to be 2.1 µM; with D. immitis microfilariae, 10 µM.

On to `O=C(NCc1cnc(Cl)s1)n1c2c(c3c(Cl)cccc31)CN(C/C=C/c1ccc(Cl)cc1)CC2` [Example 231, (E)-9-chloro-2-(3-(4-chlorophenyl)allyl)-N-((2-chlorothiazol-5-yl)methyl)-1,2,3,4-tetrahydro-5H-pyrido[4,3-b]indole-5-carboxamide], for which the values for the minimal effective concentration in the assay on Haemonchus contortus L3 and in the assay on D. immitis microfilariae were 3.3 µM and 13.5 µM, respectively.

As to `N#Cc1ccc(/C=C/CN2CCc3c(c4cc(Cl)ccc4n3C(=O)NCc3ccnc(Cl)c3)C2)cc1F` [Example 235, (E)-8-chloro-N-((2-chloropyridin-4-yl)methyl)-2-(3-(4-cyano-3-fluorophenyl)allyl)-1,2,3,4-tetrahydro-5H-pyrido[4,3-b]indole-5-carboxamide], the results for the minimal effective concentration in the assay with Haemonchus contortus L3 and with D. immitis microfilariae were 0.1 µM and more than 100 µM, respectively.

Regarding `N#Cc1ccc2c3c(n(C(=O)NCc4ccnc(Cl)c4)c2c1)CCN(C/C=C/c1ccc(F)c(Cl)c1)C3` [Example 27, (E)-2-(3-(3-chloro-4-fluorophenyl)allyl)-N-((2-chloropyridin-4-yl)methyl)-7-cyano-1,2,3,4-tetrahydro-5H-pyrido[4,3-b]indole-5-carboxamide], the minimal effective concentration in the assay with Haemonchus contortus L3 and in the assay on D. immitis microfilariae was 1.8 µM each time.

Regarding `O=C(NCc1ccnc(Cl)c1)n1c2c(c3cc(C(F)(F)F)ccc31)CN(C/C=C/c1ccc(OC(F)(F)F)cc1)CC2` [Example 335, (E)-N-((2-chloropyridin-4-yl)methyl)-2-(3-(4-(trifluoromethoxy)phenyl)allyl)-8-(trifluoromethyl)-1,2,3,4-tetrahydro-5H-pyrido[4,3-b]indole-5-carboxamide], the results for the minimal effective concentration with Haemonchus contortus L3 and in the assay on D. immitis microfilariae were 10 µM and 24 µM, respectively.

For the molecule `O=C(NCc1ccnc(Cl)c1)n1c2c(c3cccc(Cl)c31)CN(C/C=C/c1ccc(Cl)cc1)CC2` [Example 267, (E)-6-chloro-2-(3-(4-chlorophenyl)allyl)-N-((2-chloropyridin-4-yl)methyl)-1,2,3,4-tetrahydro-5H-pyrido[4,3-b]indole-5-carboxamide], the minimal effective concentration was more than 100 µM in the assay with Haemonchus contortus L3 and 10 µM in the assay with D. immitis microfilariae.

On to `N#Cc1ccc2c3c(n(C(=O)NCc4ccnc(Cl)c4)c2c1)CCN(C/C=C/c1cc(F)ccc1Br)C3` [Example 10, (E)-2-(3-(2-bromo-5-fluorophenyl)allyl)-N-((2-chloropyridin-4-yl)methyl)-7-cyano-1,2,3,4-tetrahydro-5H-pyrido[4,3-b]indole-5-carboxamide], for which the minimal effective concentration is 1 µM in the assay with Haemonchus contortus L3 and more than 100 µM in the assay with D. immitis microfilariae.

With `O=C(NCc1cnc(Cl)s1)n1c2c(c3cc(Br)ccc31)CN(C/C=C/c1ccc(Cl)cc1)CC2` [Example 193, (E)-8-bromo-2-(3-(4-chlorophenyl)allyl)-N-((2-chlorothiazol-5-yl)methyl)-1,2,3,4-tetrahydro-5H-pyrido[4,3-b]indole-5-carboxamide], the results for the minimal effective concentration with Haemonchus contortus L3 and with D. immitis microfilariae were 1 µM and 75.8 µM, respectively.

Turning to `O=C(NCc1ccnc(Cl)c1)n1c2c(c3ccc(OC(F)(F)F)cc31)CN(C/C=C/c1ccc(Cl)c(F)c1)CC2` [Example 336, (E)-2-(3-(4-chloro-3-fluorophenyl)allyl)-N-((2-chloropyridin-4-yl)methyl)-7-(trifluoromethoxy)-1,2,3,4-tetrahydro-5H-pyrido[4,3-b]indole-5-carboxamide], the minimal effective concentration in the assay on Haemonchus contortus L3 was found to be 1 µM; in the assay with D. immitis microfilariae, 33 µM.

Turning to `COc1cc(CNC(=O)n2c3c(c4cc(C#N)ccc42)CN(C/C=C/c2ccc(Cl)c(F)c2)CC3)ccn1` [Example 64, (E)-2-(3-(4-chloro-3-fluorophenyl)allyl)-8-cyano-N-((2-methoxypyridin-4-yl)methyl)-1,2,3,4-tetrahydro-5H-pyrido[4,3-b]indole-5-carboxamide], the values for the minimal effective concentration in the assay with Haemonchus contortus L3 and in the assay on D. immitis microfilariae were 0.5 µM and 3.3 µM, respectively.

As for `N#Cc1ccc2c(c1)c1c(n2C(=O)NCc2ccnc(Cl)c2)CCN(C/C=C/c2ccc(F)cc2Br)C1` [Example 94, (E)-2-(3-(2-bromo-4-fluorophenyl)allyl)-N-((2-chloropyridin-4-yl)methyl)-8-cyano-1,2,3,4-tetrahydro-5H-pyrido[4,3-b]indole-5-carboxamide], the minimal effective concentration was 0.1 µM in the assay with Haemonchus contortus L3 and more than 100 µM in the assay on D. immitis microfilariae.

With `Cc1ccc2c3c(n(C(=O)NCc4ccnc(Cl)c4)c2c1)CCN(C/C=C/c1ccc(Cl)cc1)C3` [Example 146, (E)-2-(3-(4-chlorophenyl)allyl)-N-((2-chloropyridin-4-yl)methyl)-7-methyl-1,2,3,4-tetrahydro-5H-pyrido[4,3-b]indole-5-carboxamide], the results for the minimal effective concentration with Haemonchus contortus L3 and in the assay with D. immitis microfilariae were 0.4 µM and 10 µM, respectively.

`N#Cc1ccc(/C=C/CN2CCc3c(c4c(OC(F)(F)F)cccc4n3C(=O)NCc3ccnc(Cl)c3)C2)cc1` [Example 352, (E)-N-((2-chloropyridin-4-yl)methyl)-2-(3-(4-cyanophenyl)allyl)-9-(trifluoromethoxy)-1,2,3,4-tetrahydro-5H-pyrido[4,3-b]indole-5-carboxamide]: the minimal effective concentration was found to be 33 µM in the assay with Haemonchus contortus L3 and 5.7 µM with D. immitis microfilariae.
